Results taken from US20080090805A1, “CB-1 MODULATING COMPOUNDS AND THEIR USE” (ACADIA PHARMACEUTICALS INC., priority 2005, published 2008).
Where two headings read alike, the source gives them in different places.

Target: CB1 (mutant) (Homo sapiens, UniProt P21554)
Assay: R-SAT functional receptor assay, CB1 (mutant, truncated after amino acid 417)
Format: cell-based
Details: R-SAT CB1; for IC50: receptor form (mutant or wild-type) not stated
[1] = Appendix A, read-out: pIC50 (converted)
[2] = Appendix A, receptor form not stated, relative to SR141716 (100%), read-out: % Inhibition

Chain of CB1 (mutant) (P21554 1-417, change not shown): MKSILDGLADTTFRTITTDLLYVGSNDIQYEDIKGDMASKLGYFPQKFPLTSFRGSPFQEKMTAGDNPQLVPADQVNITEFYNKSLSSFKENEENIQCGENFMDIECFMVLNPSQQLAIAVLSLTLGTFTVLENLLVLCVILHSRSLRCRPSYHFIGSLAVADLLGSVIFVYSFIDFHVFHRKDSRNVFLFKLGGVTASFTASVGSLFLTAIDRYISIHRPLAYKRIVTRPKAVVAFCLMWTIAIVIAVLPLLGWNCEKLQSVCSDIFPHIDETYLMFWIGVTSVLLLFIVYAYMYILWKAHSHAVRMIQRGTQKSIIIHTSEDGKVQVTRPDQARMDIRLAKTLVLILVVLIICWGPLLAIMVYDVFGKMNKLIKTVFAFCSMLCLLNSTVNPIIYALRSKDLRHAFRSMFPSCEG

SMILES	IC50 [1]	Emax [2]	% Inhibition (Appendix A, receptor form not stated, relative to SR141716 (100%))	Emax (read-out: % Inhibition, Appendix A, receptor form not stated, relative to SR141716 (100%))	IC50 (pIC50, Appendix A)
CC(C)CNC(=O)c1ccc2c(c1)N=C(c1cccc(Cl)c1)c1ccccc1S2 [drawing 609]	3.98 nM	–	–	116%	–
O=C(NN1CCCCC1)c1ccc2c(c1)N=C(N1CCCCC1)c1ccccc1S2 [drawing 610]	50.1 nM	104%	–	–	–
O=C(NCc1ccc(F)cc1)c1ccc2c(c1)N=C(N1CCCCC1)c1ccccc1S2 [drawing 611]	3.98 nM	80%	–	–	–
O=C(NCCCc1ccccc1)c1ccc2c(c1)N=C(c1ccccc1)c1ccccc1S2 [drawing 617]	3.98 nM	111%	–	–	–
Cc1ccsc1C1=Nc2cc(C(=O)NC3CCC(F)(F)CC3)ccc2Sc2ccccc21 [drawing 620]	–	76%	–	–	63.1 nM
O=C(NCc1ccco1)c1ccc2c(c1)N=C(c1ccc(Cl)s1)c1ccccc1S2 [drawing 621]	3.98 nM	118%	–	–	–
O=C(NCc1ccccc1Cl)c1ccc2c(c1)N=C(c1ccccc1F)c1ccccc1S2 [drawing 622]	–	72%	–	–	63.1 nM
Cc1ccc(CNC(=O)c2ccc3c(c2)N=C(c2cccc(Cl)c2)c2ccccc2S3)o1 [drawing 623]	5.01 nM	74%	–	–	–
O=C(NN1CCCCCC1)c1ccc2c(c1)N=C(c1ccc(Cl)cc1)c1ccccc1S2 [drawing 624]	63.1 nM	103%	–	–	–
O=C(NCCC(F)(F)F)c1ccc2c(c1)N=C(c1cccc(F)c1)c1ccccc1S2 [drawing 625]	5.01 nM	85%	–	–	–
CC(C)CNC(=O)c1ccc2c(c1)N=C(c1ccccc1F)c1ccccc1S2 [drawing 627]	5.01 nM	118%	–	–	–
CCCCNC(=O)c1cc2c(cc1C)Sc1ccccc1C(c1ccc(Cl)cc1)=N2 [drawing 630]	–	94%	–	–	63.1 nM
CC(NC(=O)c1ccc2c(c1)N=C(C1CCCCC1)c1ccccc1S2)c1ccccc1 (stereo not drawn) [drawing 634]	63.1 nM	–	87%	–	–
CCN(CCNC(=O)c1ccc2c(c1)N=C(c1ccc(Cl)cc1)c1ccccc1S2)c1ccccc1 [drawing 635]	5.01 nM	102%	–	–	–
CC(CNC(=O)c1ccc2c(c1)N=C(c1ccc(F)cc1)c1ccccc1S2)c1ccccc1 (stereo not drawn) [drawing 639]	–	98%	–	–	5.01 nM
CCCNC(=O)c1ccc2c(c1)N=C(c1cccc(Cl)c1)c1ccccc1S2 [drawing 641]	5.01 nM	107%	–	–	–

More lines, main results first:

IC50 [1]	Emax [2]	% Inhibition (Appendix A, receptor form not stated, relative to SR141716 (100%))	SMILES	Emax (read-out: % Inhibition, Appendix A, receptor form not stated, relative to SR141716 (100%))	IC50 (pIC50, Appendix A)
50.1 nM	94%	–	O=C(NCc1ccccc1Br)c1ccc2c(c1)N=C(c1ccc(Cl)cc1)c1ccccc1S2 [drawing 608]	–	–
50.1 nM	90%	–	O=C(NCc1ccccn1)c1ccc2c(c1)N=C(c1ccc(Br)cc1)c1ccccc1S2 [drawing 612]	–	–
3.98 nM	110%	–	CC(C)CNC(=O)c1ccc2c(c1)N=C(c1ccc(Cl)cc1F)c1ccccc1S2 [drawing 613]	–	–
3.98 nM	110%	–	O=C(NCCCc1ccccc1)c1ccc2c(c1)N=C(c1cccc(Cl)c1)c1ccccc1S2 [drawing 615]	–	–
63.1 nM	99%	–	O=C(NCCc1ccc(Cl)cc1)c1ccc2c(c1)N=C(N1CCC(F)(F)CC1)c1ccccc1S2 [drawing 628]	–	–
5.01 nM	112%	–	CC(C)CNC(=O)c1ccc2c(c1)N=C(c1cccc(F)c1)c1ccccc1S2 [drawing 629]	–	–
5.01 nM	104%	–	O=C(NCCc1ccc(Cl)cc1)c1ccc2c(c1)N=C(c1ccc(Cl)cc1)c1ccccc1S2 [drawing 631]	–	–
63.1 nM	95%	–	CCCCNC(=O)c1ccc2c(c1)N=C(c1ccc(Cl)cn1)c1ccc(F)cc1S2 [drawing 632]	–	–
5.01 nM	92%	–	CCCCNC(=O)c1ccc2c(c1)N=C(c1ccc(Cl)s1)c1ccccc1S2 [drawing 633]	–	–
5.01 nM	112%	–	O=C(NCc1cccc(Cl)c1)c1ccc2c(c1)N=C(C1CCCCC1)c1ccccc1S2 [drawing 637]	–	–
63.1 nM	116%	–	O=C(NCCc1cccnc1)c1ccc2c(c1)N=C(c1ccc(Cl)cc1)c1ccccc1S2 [drawing 638]	–	–
